Key:
Format in all cases: cell-based, Human
[1] = system: COLO 205; assay: MTS cell viability (cytotoxic activity) assay, COLO 205; conditions: COLO 205, MTS, 72 h; mean ± SD, at least three experiments
From the text: (§1) Human colorectal cancer (COLO 205, CCL-222), breast cancer (MCF-7, HTB-22), chronic myelogenous leukemia (K-562, CCL-243), and umbilical vein/vascular endothelium (HUVEC, CRL-1730) cell lines were obtained from the American Type Culture Collection. The COLO 205, MCF-7, K-562, and HUVEC cell lines were maintained in Roswell Park Memorial Institute ([…], Wisent, Montreal, QC, CANADA), Eagle′s Minimum Essential Medium (EMEM, Wisent, Montreal, QC, CANADA), Iscove’s Modified Dulbecco’s Medium (IMDM, Wisent, Montreal, QC, CANADA), and Dulbecco′s Modified Eagle Medium (DMEM, Wisent, Montreal, QC, CANADA) supplemented with 10% fetal bovine serum (Capricorn, Ebsdorfergrund, Germany), 100 U/mL penicillin, and 100 µg/mL streptomycin (Wisent, Montreal, QC, CANADA), respectively. All of the cell lines were cultured at 37 °C in a humidified atmosphere containing 5% CO2.
(§2) A 3-[4,5-dimethylthiazol-2-yl]-5-[3-carboxymethoxyphenyl]-2-[4-sulfophenyl]-2H-tetrazolium, inner salt (MTS) cell viability assay was performed to evaluate the cytotoxic activities of the sesquiterpene coumarin ethers isolated from Ferula huber-morathii. HUVEC (1 × 10^4), COLO 205 (3 × 10^4), K-562 (3 × 10^4), and MCF7 (5 × 10^4) were plated in 96-well plates. Then, 24 h later, the tested compounds were dissolved in DMSO, and the cells were exposed to the different concentrations (131.58–1.028 µM) of the compounds for 72 h. Cisplatin and doxorubicin were used as a positive control. Next, an MTS/phenazine methosulfate (PMS) (Promega, Madison, WI, USA and Sigma, St. Louis, MO, USA respectively) mixture was added to each well and incubated for 1–4 h at 37 °C. The absorbance was read on a microplate reader (Biotek, Winooski, VT, USA) at 490 nm. The cytotoxic activities of the compounds were expressed as an IC50 value. The % inhibition of cell proliferation was calculated using the formula: % Inhibition = [1-(A490test/A490cont)] × 100, where A490test = absorbance of the test sample and A490cont = absorbance of the control sample [88]. The values of the 50% inhibition of the cell proliferation (IC50) were calculated by locating the x-axis values corresponding to one-half of the absorbance values of the sample.

[2] = system: K-562; assay: MTS cell viability (cytotoxic activity) assay, K-562; conditions: K-562, MTS, 72 h; mean ± SD, at least three experiments
From the text: as §1, §2

[3] = system: MCF-7; assay: MTS cell viability (cytotoxic activity) assay, MCF-7; conditions: MCF-7, MTS, 72 h; mean ± SD, at least three experiments
From the text: as §1, §2

[4] = system: HUVEC; assay: MTS cell viability (cytotoxic activity) assay, non-cancerous HUVEC; conditions: 72 h, mean ± SD, at least three experiments
From the text: as §1, §2

[5] = system: caspase-3; assay: Caspase-3 colorimetric activity assay in COLO 205 cells; conditions: COLO 205, 24 h, highest concentration (131.58 µM)
Protocol: (§3) The caspase-3, -8, and -9 activities were detected by following the protocol of the caspase-3, -8, -9 colorimetric assay kits (Biovision, K106, K113, K119, Mountain View, CA, USA). The cells treated with mogoltadone (5) for 24 h were harvested and lysed with a RIPA (50 mM Tris-HCl, pH 8.0, 150 mM NaCl, 1% Nonidet P-40, 0.5% sodium deoxycholate and 0.1% SDS) cell lysis buffer. The lysed cells were centrifuged at 22,000 g for 30 min and the supernatant was collected in a tube. The samples (200 µg protein) were incubated with caspase substrates (final concentration, 200 µM) at 37° C for 2 h and read on a microplate reader at 405 nm. The fold-increase in enzyme activity was detected by comparison with the untreated control.

[6] = system: caspase-8; assay: Caspase-8 colorimetric activity assay in COLO 205 cells; conditions: COLO 205, 24 h, highest concentration (131.58 µM)
Protocol: as §3

[7] = system: caspase-9; assay: Caspase-9 colorimetric activity assay in COLO 205 cells; conditions: COLO 205, 24 h, highest concentration (131.58 µM)
Protocol: as §3

[8] = system: K-562; assay: MTS cell viability (cytotoxic activity) assay, K-562; conditions: K-562, MTS, 72 h; root extracts
[9] = system: MCF-7; assay: MTS cell viability (cytotoxic activity) assay, MCF-7; conditions: MCF-7, MTS, 72 h; root extracts

N.N.[Cl][Pt][Cl] [Cisplatin, reference compound]
IC50 [1]: 112 ± 3.11 µM | IC50 [2]: 8.1 ± 0.25 µM | IC50 [3]: 64.2 ± 5.25 µM | IC50 [4]: 40.7 ± 1.12 µM | increase in caspase-3 activity compared with the control [5]: 6.73 fold | increase in caspase-8 activity compared with the control [6]: 1.8 fold | increase in caspase-9 activity compared with the control [7]: 2.07 fold | IC50 (µg/mL) K-562 [8]: 9.73 ± 0.30 µg/mL | IC50 (µg/mL) MCF-7 [9]: 35.52 ± 0.76 µg/mL

Reference: PMC10305617, “Sesquiterpene Coumarin Ethers with Selective Cytotoxic Activities from the Roots of Ferula huber-morathii Peşmen (Apiaceae) and Unequivocal Determination of the Absolute Stereochemistry of Samarcandin” (Pharmaceuticals, 2023)
